pIC50: −log10 of the molar value.
Test system: T1, monoclonal anti-benzoylecgonine/cocaine (BEC) antibody IP3G2
T1 construct: monoclonal antibody, clone IP3G2, mouse, subtype IgG1
Assay: indirect competitive ELISA with chemiluminescence detection against BEC-BSA; also competitive immunofluorometric biosensor with Dy-654-labelled antibody
Assay type: binding, Mus musculus

COC(=O)[C@H]1[C@@H](OC(=O)c2ccccc2)C[C@@H]2CC[C@H]1N2C [cocaine]
pIC50: ~9.12
